Source: article PMC8053108, “RPA2 winged-helix domain facilitates UNG-mediated removal of uracil from ssDNA; implications for repair of mutagenic uracil at the replication fork” (Nucleic Acids Research, 2021)

Test system: UNG2 or N-terminally truncated versions
Test: Uracil excision in presence of increasing amounts of purified free WH domain
Type: biochemical, human
Settings: 0.4 nM enzyme, 0-50 μM purified WH domain, 100 nM DNA
Protocol: 3′-FAM-labelled, PAGE-purified oligonucleotide substrates were from Sigma-Aldrich. Unless otherwise indicated, the substrate (25 nt) harboured uracil at position 10 in a polyC sequence to avoid secondary structures (U10-25*: […]-FAM). Double-stranded substrate was generated by annealing (heating followed by slow cooling) U10-25* to a non-labelled complementary oligo (A16-25: […]). All assays were performed at 22°C in 10 mM Tris–HCl pH 7.5, 50 mM NaCl, 1 mM DTT, 0.1 mM EDTA, 0.5 mg/ml BSA.
Varying amounts of UNG were then added, and the mixtures incubated for 10 min in a water bath. To avoid unspecific interactions and binding of enzyme and DNA to the assay tube surface, low-DNA binding tubes and excess of BSA was used in all reactions. Reactions were quenched and AP sites cleaved in 10% piperidine at 90°C for 20 min. Samples were dried by vacuum centrifugation and suspended in formamide-containing loading buffer. Product and substrate were separated in 12% PAGE/7M urea–0.5× TBE gels, bands visualised in ChemiDoc™ Imager (Bio-Rad) and quantified by Image Lab software (Bio-Rad). Importantly, all assays in which two parameters were compared (e.g. RPA-coated versus naked substrate or WT versus mutated protein) were performed in parallel with the exact same DNA/protein dilutions.

## WH domain: purified RPA2-WH domain, RPA2 residues 172-270
  effect on uracil excision from naked ss- and dsDNA substrates: little effect
RPA-bound
  effect on uracil excision from RPA-bound ss- and dsDNA substrates: markedly reduced
